Results reported in the supplement of paper PMC4954754.
Several values for one entry are separate records, joined by “and”; a condition that tells them apart may be missing. Equal entries are not always repeated. ± gives the uncertainty stated by the source.

What was measured:
Details in all cases: 18 h
[1] = tested on: HEK293T-Rex ERSE-FLuc; assay: EC50 for ERSE-FLuc reporter activation
Description: (§1)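 Dose-response of hit compounds in HEK293T-Rex cells stably expressing ERSE-FLuc or XBP1-RLuc reporters, 18 hr treatment, 1536-well; luminescence normalised to 500 nM thapsigargin (100%) and DMSO (0%), fitted to give EC50 (M) and maximal activation; '>' marks EC50 above the top tested dose (~17 µM).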

[2] = tested on: HEK293T-Rex XBP1-RLuc; assay: maximal XBP1-RLuc activation from dose-response fit, relative to thapsigargin (% of thapsigargin); higher = stronger activation
Description: as §1

[3] = tested on: HEK293T-Rex XBP1-RLuc; assay: EC50 for XBP1-RLuc reporter activation
Description: as §1

[4] = tested on: HEK293T-Rex ERSE-FLuc; assay: maximal ERSE-FLuc activation from dose-response fit, relative to thapsigargin (% of thapsigargin); higher = stronger activation
Description: as §1

`C=CCNC(=O)c1cc(-c2cccs2)on1` was tested, and the “EC50 for ERSE-FLuc reporter activation” value [1] was 5.28 µM, the “maximal XBP1-RLuc activation” value [2] was 12.8 ± 0.79 and the “EC50 for XBP1-RLuc reporter activation” value [3] was > 16.9 µM. For the same molecule, the “maximal ERSE-FLuc activation” value [4] was 124 ± 2.7.
In the case of `N#C/C(=C/c1ccc(O)c(O)c1)c1nc2ccccc2[nH]1`, the “EC50 for ERSE-FLuc reporter activation” value [1] is reported as > 16.9 µM, the “maximal XBP1-RLuc activation” value [2] is reported as 20.7 ± 5.2 and the “EC50 for XBP1-RLuc reporter activation” value [3] is reported as > 16.9 µM. The “maximal ERSE-FLuc activation” value [4] was 29 ± 5.2.
For `O=C1/C(=C/c2ccc(O)c(O)c2)SC(=S)N1c1ccc(O)cc1`, the “EC50 for ERSE-FLuc reporter activation” value [1] was 12.4 µM, the “maximal XBP1-RLuc activation” value [2] was 35.5 ± 3.5 and the “EC50 for XBP1-RLuc reporter activation” value [3] was > 16.9 µM. For the same molecule, the “maximal ERSE-FLuc activation” value [4] was 77.1 ± 17.
For `Cc1ccc2nc(/C(C#N)=C/c3ccc(O)c(O)c3)[nH]c2c1`, the “EC50 for ERSE-FLuc reporter activation” value [1] was > 16.9 µM, the “maximal XBP1-RLuc activation” value [2] was 19.7 ± 5.9 and the “EC50 for XBP1-RLuc reporter activation” value [3] was > 16.9 µM. The “maximal ERSE-FLuc activation” value [4] was 23.4 ± 2.9.
For `Oc1ccc(-c2cn3ccccc3n2)cc1O`, the “EC50 for ERSE-FLuc reporter activation” value [1] was 18.4 µM, the “maximal XBP1-RLuc activation” value [2] was 38.7 ± 3.2 and the “EC50 for XBP1-RLuc reporter activation” value [3] was > 22.5 µM. For the same molecule, the “maximal ERSE-FLuc activation” value [4] was 51.7 ± 5.5.
In the case of `CCCCCC(=O)Nc1ccc(C(=O)Nc2ccccc2O)cc1`, the “EC50 for ERSE-FLuc reporter activation” value [1] is reported as 8.09 µM, the “maximal XBP1-RLuc activation” value [2] is reported as 21.2 ± 1.6 and the “EC50 for XBP1-RLuc reporter activation” value [3] is reported as > 15.6 µM. For the same molecule, the “maximal ERSE-FLuc activation” value [4] was 112 ± 10.
In the case of `COc1ccc(/C(C)=N/OC/C(O)=C(\C#N)c2nc3ccccc3[nH]2)cc1OC`, the “EC50 for ERSE-FLuc reporter activation” value [1] is reported as > 17.2 µM, the “maximal XBP1-RLuc activation” value [2] is reported as 3.33 ± 0.88 and the “EC50 for XBP1-RLuc reporter activation” value [3] is reported as > 17.2 µM. The “maximal ERSE-FLuc activation” value [4] was 5.39 ± 2.3.
`CN(C)c1ccc(/C=C(/C#N)C(=O)Nc2ccc(O)cc2)cc1` was tested, and the “EC50 for ERSE-FLuc reporter activation” value [1] was > 16.9 µM, the “maximal XBP1-RLuc activation” value [2] was 31 ± 2.4 and the “EC50 for XBP1-RLuc reporter activation” value [3] was > 16.9 µM. The “maximal ERSE-FLuc activation” value [4] was 29.9 ± 4.7.
With `O=C(Nc1ccc(Cl)cn1)c1ccc(Cl)cc1Cl` the “EC50 for ERSE-FLuc reporter activation” value [1] was > 15.2 µM, the “maximal XBP1-RLuc activation” value [2] was 4.15 ± 0.98 and the “EC50 for XBP1-RLuc reporter activation” value [3] was > 15.2 µM. For the same molecule, the “maximal ERSE-FLuc activation” value [4] was 22.5 ± 8.3.
`O=c1cc(-c2ccc(O)c(O)c2)oc2cc(O)cc(O)c12` was tested, and the “EC50 for ERSE-FLuc reporter activation” value [1] was 14.1 µM and 7.57 µM, the “maximal XBP1-RLuc activation” value [2] was 36.6 and 29 and the “EC50 for XBP1-RLuc reporter activation” value [3] was > 16.9 µM. For the same molecule, the “maximal ERSE-FLuc activation” value [4] was 80.9 and 67.8.
In the case of `N#C/C(=C/c1ccc(O)c(O)c1)c1nc2ccccc2s1`, the “EC50 for ERSE-FLuc reporter activation” value [1] is reported as > 16.9 µM, the “maximal XBP1-RLuc activation” value [2] is reported as 27.5 ± 2.7 and the “EC50 for XBP1-RLuc reporter activation” value [3] is reported as > 16.9 µM. For the same molecule, the “maximal ERSE-FLuc activation” value [4] was 38.1 ± 2.2.
`O=C(Nc1ccc(O)cc1)c1ccc2ccccc2c1` was tested, and the “EC50 for ERSE-FLuc reporter activation” value [1] was > 16.9 µM, the “maximal XBP1-RLuc activation” value [2] was 16.2 ± 1.5 and the “EC50 for XBP1-RLuc reporter activation” value [3] was > 16.9 µM. For the same molecule, the “maximal ERSE-FLuc activation” value [4] was 31.4 ± 2.5.
`C=CCNC(=O)c1cc(-c2ccc(F)cc2)on1` was tested, and the “EC50 for ERSE-FLuc reporter activation” value [1] was 16.7 µM, the “maximal XBP1-RLuc activation” value [2] was 6.35 ± 5.3 and the “EC50 for XBP1-RLuc reporter activation” value [3] was > 16.9 µM. The “maximal ERSE-FLuc activation” value [4] was 50.2 ± 7.4.
With `Nc1nc(Nc2ccc(Cl)cc2)nc2ccccc12` the “EC50 for ERSE-FLuc reporter activation” value [1] was 9.57 µM, the “maximal XBP1-RLuc activation” value [2] was 56.4 ± 4.6 and the “EC50 for XBP1-RLuc reporter activation” value [3] was 8.74 µM. For the same molecule, the “maximal ERSE-FLuc activation” value [4] was 103 ± 24.
For `Oc1ccc(-c2cnc3c(Nc4ccc5[nH]ccc5c4)nccn23)cc1`, the “EC50 for ERSE-FLuc reporter activation” value [1] was > 16.9 µM, the “maximal XBP1-RLuc activation” value [2] was 37.8 ± 9.5 and the “EC50 for XBP1-RLuc reporter activation” value [3] was > 16.9 µM. For the same molecule, the “maximal ERSE-FLuc activation” value [4] was 21.4 ± 3.8.
For `N#CC1=C(N)Oc2c(ccc3ccccc23)C1c1ccsc1` (configuration not stated), the “EC50 for ERSE-FLuc reporter activation” value [1] was > 18.3 µM, the “maximal XBP1-RLuc activation” value [2] was 5.3 ± 5 and the “EC50 for XBP1-RLuc reporter activation” value [3] was > 18.3 µM. For the same molecule, the “maximal ERSE-FLuc activation” value [4] was 21.2 ± 5.6.
For `COc1ccccc1/C=N/Nc1nc(-c2ccccc2)cc(=O)[nH]1`, the “EC50 for ERSE-FLuc reporter activation” value [1] was > 16.9 µM, the “maximal XBP1-RLuc activation” value [2] was 5.2 ± 9.3 and the “EC50 for XBP1-RLuc reporter activation” value [3] was > 16.9 µM. For the same molecule, the “maximal ERSE-FLuc activation” value [4] was 28.3 ± 0.49.
For `COc1cccc(C(=O)/C=C/Nc2cc(C)ccc2O)c1`, the “EC50 for ERSE-FLuc reporter activation” value [1] was 4 µM, the “maximal XBP1-RLuc activation” value [2] was 72.5 ± 3.2 and the “EC50 for XBP1-RLuc reporter activation” value [3] was 6.99 µM. The “maximal ERSE-FLuc activation” value [4] was 229 ± 0.77.
